# Assay results from BindingDB's records for patent US10513534 (IDENIX PHARMACEUTICALS LLC; CENTRE NATIONAL DE LA RECHERCHE …, 2019).
# Biological target: T1, Genome polyprotein (Hepatitis C virus genotype 1b (isolate Japanese), UniProt P26662)
# Assay: HCV Polymerase Enzyme Assay
# Description: Test compounds in the form of nucleoside triphosphates were examined for inhibitory activity against purified HCV polymerase in a standard assay. Bacterial expression constructs encoding the approximately 65 kDa HCV genotype 1b NS5B protein were used to generate recombinant HCV polymerases (with a deletion of the 21 carboxy terminal amino acids). Both the wild-type genotype 1b protein and protein containing the S282T mutation were expressed and purified for use in the enzymatic activity assay.The enzymatic activity assay measured the inhibitory effect of increasing concentrations of test compound on the incorporation of α-[33P]-labeled nucleotide into trichloroacetic acid-precipitable material. Recombinant polymerase and synthetic RNA template were combined in reaction buffer containing ribonucleoside triphosphates, α-[33P]-labeled nucleotide and eight concentrations of test compound in three-fold dilutions. Reactions were incubated for two hours at 30° C.Reactions were terminated by the addition of ice-cold trichloroacetic acid and sodium pyrophosphate to promote precipitation of newly-synthesized ribonucleic acid. Precipitable material from the reactions was collected by filtration onto 96-well filter plates, washed extensively with water, and quantified by liquid scintillation.The inhibitory activity of test compounds was determined by fitting results to dose-response curves using XLfit software.
row,SMILES,IC50 [nM]
1,"C[C@@]1(Cl)[C@H](O)[C@@H](COP(=O)(O)OP(=O)(O)OP(=O)(O)O)O[C@H]1n1cnc2c(N)nc(Cl)nc21 [US10513534, Compound 404]",> 10000
2,"C[C@@]1(Cl)[C@H](O)[C@@H](COP(=O)(O)OP(=O)(O)OP(=O)(O)O)O[C@H]1n1ccc(=O)[nH]c1=O [US10513534, Compound 401]",< 250
3,"C[C@@]1(Cl)[C@H](O)[C@@H](COP(=O)(O)OP(=O)(O)OP(=O)(O)O)O[C@H]1n1cnc2c(N)ncnc21 [US10513534, Compound 406]",< 250
4,"C[C@@]1(Cl)[C@H](O)[C@@H](COP(=O)(O)OP(=O)(O)OP(=O)(O)O)O[C@H]1n1ccc(N)nc1=O [US10513534, Compound 402]",5500

# Biological target: T1, Genome polyprotein
# Assay: not given
row,SMILES,IC50 [nM]
1,"C[C@@]1(Cl)[C@H](O)[C@@H](COP(=O)(O)OP(=O)(O)OP(=O)(O)O)O[C@H]1n1ccc2c(N)ncnc21 [US10513534, Compound 403]",< 250
2,"C[C@@]1(Cl)[C@H](O)[C@@H](COP(=O)(O)OP(=O)(O)OP(=O)(O)O)O[C@H]1n1cnc2c(N)nc(Cl)nc21 [US10513534, Compound 404]",> 10000
3,"C[C@@]1(Cl)[C@H](O)[C@@H](COP(=O)(O)OP(=O)(O)OP(=O)(O)O)O[C@H]1n1cnc2c(=O)[nH]c(N)nc21 [US10513534, Compound 405]",< 250
4,"C[C@@]1(Cl)[C@H](O)[C@@H](COP(=O)(O)OP(=O)(O)OP(=O)(O)O)O[C@H]1n1cc(F)c2c(N)ncnc21 [US10513534, Compound 407]",< 250
